Measurements: publication PMC9996622 (ACS Omega, 2023)

Target: T1, DnaE1 (Mycobacterium tuberculosis, UniProt P9WNT7)
T1 sequence (P9WNT7 1-1184): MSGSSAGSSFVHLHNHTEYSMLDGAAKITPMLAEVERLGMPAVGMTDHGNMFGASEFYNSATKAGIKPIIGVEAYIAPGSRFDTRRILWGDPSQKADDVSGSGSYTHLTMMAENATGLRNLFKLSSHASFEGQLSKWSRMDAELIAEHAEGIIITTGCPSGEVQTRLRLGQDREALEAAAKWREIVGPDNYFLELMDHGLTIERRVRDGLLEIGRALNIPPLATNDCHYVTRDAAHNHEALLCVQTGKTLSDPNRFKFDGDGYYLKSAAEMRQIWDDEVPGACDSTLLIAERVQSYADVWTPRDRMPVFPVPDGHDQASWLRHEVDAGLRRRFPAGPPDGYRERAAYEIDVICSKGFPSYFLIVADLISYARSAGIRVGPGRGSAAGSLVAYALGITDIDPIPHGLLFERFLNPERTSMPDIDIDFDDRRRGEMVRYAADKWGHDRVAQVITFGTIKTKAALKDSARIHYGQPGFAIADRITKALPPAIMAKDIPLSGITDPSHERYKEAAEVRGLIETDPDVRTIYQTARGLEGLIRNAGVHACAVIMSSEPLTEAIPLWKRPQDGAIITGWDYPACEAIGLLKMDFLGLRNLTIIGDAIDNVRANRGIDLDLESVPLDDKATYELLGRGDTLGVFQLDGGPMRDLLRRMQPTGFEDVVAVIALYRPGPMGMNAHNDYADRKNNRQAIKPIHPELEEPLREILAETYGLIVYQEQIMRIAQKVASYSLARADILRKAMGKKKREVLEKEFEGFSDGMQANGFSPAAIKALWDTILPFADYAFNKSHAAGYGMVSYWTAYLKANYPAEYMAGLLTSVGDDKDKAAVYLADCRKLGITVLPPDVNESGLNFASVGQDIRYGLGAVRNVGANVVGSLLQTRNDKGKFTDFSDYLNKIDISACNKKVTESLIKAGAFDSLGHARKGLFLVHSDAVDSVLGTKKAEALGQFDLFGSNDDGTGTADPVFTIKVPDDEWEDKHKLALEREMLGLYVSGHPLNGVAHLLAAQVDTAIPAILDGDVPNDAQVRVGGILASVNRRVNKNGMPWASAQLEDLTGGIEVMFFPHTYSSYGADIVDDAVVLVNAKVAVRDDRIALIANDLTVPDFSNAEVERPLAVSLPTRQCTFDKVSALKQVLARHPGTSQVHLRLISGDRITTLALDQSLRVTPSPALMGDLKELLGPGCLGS
Assay: 2-aminopurine fluorescence exonuclease assay, dose-response
Format: biochemical

Work on `OC[C@H]1O[C@@H](n2cnc3c(S)ncnc32)[C@H](O)[C@@H]1O` [6-thioinosine] yielded an IC50 of 64 µM.
